Patent publication US4206215A, “Antimicrobial bis-[4-(substituted-amino)-1-pyridinium]alkanes” (Sterling Drug Inc., priority 1977, dated 1980)
Like-named read-outs stand apart in the source and are kept apart here.

Experiments:
Ps. aerug. MGH-2 = experiment: In vitro antibacterial activity, MIC (modified Autotiter method); format: cell-based, Pseudomonas aeruginosa; details: 18-20 hours at 37° C.; for MIC: Pseudomonas aeruginosa, 20 h, read-out: MIC Ps. aerug. MGH-2
In short: (§1)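 MIC values come from a twofold dilution series spanning final concentrations of 500 down to 0.06 mcg./ml. Dilutions were prepared automatically in sterile water from a 1,000 mcg./ml. solution before inoculated double-strength glucose-containing semisynthetic medium was added.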

[1] = Acute oral toxicity (ALD50); format: in vivo; details: mouse, in vivo, po, mice, read-out: 7-Day ALD50
Procedure: (§2) The acute oral toxicity (ALD50) of several representative examples was determined as follows: Groups of 3 young adult male Swiss-Webster strain albino mice were fasted approximately 4 hours before medication and then medicated once orally by stomach tube.

[2] = tested on: young adult male Swiss-Webster strain albino mice; experiment: Acute oral toxicity (ALD50); format: in vivo
Procedure: as §2

S. pyogen. C203 = experiment: In vitro antibacterial activity, MIC (modified Autotiter method); format: cell-based, Streptococcus pyogenes; details: 18-20 hours at 37° C.; for MIC: Streptococcus pyogenes, 20 h, read-out: MIC S. pyogen. C203
In short: as §1

K. pneum. 39645 = experiment: as above; format: cell-based, Klebsiella pneumoniae; details: 18-20 hours at 37° C.; for MIC: Klebsiella pneumoniae, 20 h, read-out: MIC K. pneum. 39645
In short: as §1

C. albicans 10231 = experiment: In vitro antifungal activity, MIC (modified Autotiter method); format: cell-based, Candida albicans; details: 18-20 hours at 37° C.; for MIC: Candida albicans, 10231, 20 h, read-out: MIC C. albicans 10231
In short: as §1

C. albicans Wisc. = experiment: as above; format: cell-based, Candida albicans; details: 18-20 hours at 37° C.; for MIC: Candida albicans, 20 h, read-out: MIC C. albicans Wisc.
In short: as §1

P. mirab. MGH-1 = experiment: In vitro antibacterial activity, MIC (modified Autotiter method); format: cell-based, Proteus mirabilis; details: 18-20 hours at 37° C.; for MIC: Proteus mirabilis, 20 h, read-out: MIC P. mirab. MGH-1
In short: as §1

A. niger 16404 = experiment: In vitro antifungal activity, MIC (modified Autotiter method); format: cell-based, Aspergillus niger; details: 18-20 hours at 37° C.; for MIC: Aspergillus niger, 16404, 20 h, read-out: MIC A. niger 16404
In short: as §1

[3] = tested on: Streptococcus mutans OMZ-61; experiment: Dental plaque-preventive effectiveness in the presence of sterile human saliva (50%); format: cell-based; details: 50% sterile human saliva
Procedure: The dental plaque preventive activity of certain of the compounds of the present invention was determined by measuring the ability of these compounds to inhibit the production of dental plaque by Streptococcus mutans OMZ-61 as follows:
A culture medium for the plaque-producing Streptococcus mutans OMZ-61 containing 1.5 g. of BBL beef extract, 5 g. of sodium chloride, 10 g. of dehydrated trypticase, 5 g. of sucrose and sufficient distilled water to give a total volume of 1000 ml. is adjusted to pH 7.0 and sterilized by membrane filtration. The medium is dispensed aseptically in 10-ml. aliquots into 150×16 mm. test tubes and stored at refrigeration temperature until used.
Two concentrations of the compound to be tested are prepared by dissolving 100 mg. of the compound in 1 ml. of distilled water with the aid of sufficient 0.1 N sodium hydroxide, 10% dimethylsulfoxide or 10% N,N-dimethylformamide and diluting the resulting solution to 10 ml. with distilled water. This 1.0% solution and a 1:10 dilution in distilled water (0.1%) are sterilized by membrane filtration before use.
A sterile piece of plaque-free natural tooth enamel or synthetic hydroxylapatite is suspended in each concentration of compound for two 1-minute periods, each followed by a 1-minute air drying period. Each piece is then suspended and agitated for 5 minutes in individual test tubes containing sterile distilled water (rinse). They are then suspended in 10 ml. of liquid beef extract medium to which has been added 0.3 ml. of a 24-hr. anaerobic culture of Streptococcus mutans. The tubes containing the "treated" hydroxylapatite and the Streptococcus mutans are then incubated anaerobically at 37° C. for 24 hours. The same process of two 1-minute soaks in the solution of compound, each followed by 1 minute of air drying and the final 5-minute rinse is repeated before once again suspending the hydroxylapatite in a fresh tube containing 10 ml. of beef extract medium and 0.3 ml. of inoculum. At the end of the second 24-hour period, each piece of hydroxylapatite is rinsed for 1 minute in 3 successive tubes of distilled water. These are then suspended for 1 minute in a solution of F, D & C Red No. 3 dye. This staining procedure is used in order to identify more easily the development of plaque after the 48-hour period of exposure to the plaque-producing organism. The staining period is followed by another 10-second rinse to remove excess dye. Any plaque formation stains a brilliant pink. […] Active compounds are tested at successively lower doses in order to determine the minimum effective concentration. On some occasions, the interference of plaque production is caused by the inhibition of growth of the organism in the culture medium because the compound has been leached from the hydroxylapatite to produce an antibacterial level in the medium. When this occurs, the compound is tested at lower concentrations until the growth of the organism in the surrounding medium is equal to that in the nonmedicated control culture. Plaque may or may not be formed at these lower concentrations.
Dental plaque-preventive effectiveness in the presence of sterile human saliva (50%) was determined for representative examples.

S. Aureus Smith = experiment: In vitro antibacterial activity, MIC (modified Autotiter method); format: cell-based, Staphylococcus aureus; details: 18-20 hours at 37° C.; for MIC: Staphylococcus aureus, 20 h, read-out: MIC S. Aureus Smith
In short: as §1

T. menta. 9129 = experiment: In vitro antifungal activity, MIC (modified Autotiter method); format: cell-based, Trichophyton mentagrophytes; details: 18-20 hours at 37° C.; for MIC: Trichophyton mentagrophytes, 20 h, read-out: MIC T. menta. 9129
In short: as §1

E. coli AB1932-1 = experiment: In vitro antibacterial activity, MIC (modified Autotiter method); format: cell-based, Escherichia coli; details: 18-20 hours at 37° C.; for MIC: Escherichia coli, AB19321, 20 h, read-out: MIC E. coli AB1932-1
In short: as §1

E. coli 100/B22 = experiment: as above; format: cell-based, Escherichia coli; details: for MIC: Escherichia coli, 100/B22, 20 h, read-out: MIC E. coli 100/B22, 18-20 hours at 37° C.
In short: as §1

E. coli Vogel = experiment: as above; format: cell-based, Escherichia coli; details: 18-20 hours at 37° C.; for MIC: Escherichia coli, 20 h, read-out: MIC E. coli Vogel
In short: as §1

[4] = tested on: Herpes simplex type 2 virus; experiment: Virucidal activity in vitro (plaque inhibition test); format: cell-based; details: 2 mg. of test compound on growth medium
Procedure: Virucidal activity of representative examples against Herpes simplex type 2 virus was determined in vitro employing a procedure similar to the plaque inhibition test for detection of specific inhibitors of DNA-containing viruses published by E. C. Herrmann, Jr., Proc. Soc. Exp. Biol. Med. 107, 142 (1961) wherein 2 mg. of the test compound was placed on the surface of the growth medium.

[5] = suspension in 1% gum tragacanth
[6] = 125 mg/kg oral, suspension in 1% G.T.
[7] = 250 mg/kg oral, suspension in 1% G.T.
[8] = 500 mg/kg oral, suspension in 1% G.T.
[9] = 1000 mg/kg oral, suspension in 1% G.T.
[10] = 125 mg/kg oral, aqueous solution
[11] = 250 mg/kg oral, aqueous solution
[12] = 500 mg/kg oral, aqueous solution
[13] = 1000 mg/kg oral, aqueous solution

| SMILES | MIC (Ps. aerug. MGH-2) [µg/mL] | LD50 at 168 h [1, 5] [mg/kg] | Mortality 7 Days [2, 6] | Mortality 24 Hrs [2, 6] | Mortality 7 Days [2, 7] | Mortality 24 Hrs [2, 7] | Mortality 7 Days [2, 8] | Mortality 24 Hrs [2, 8] | Mortality 7 Days [2, 9] | Mortality 24 Hrs [2, 9] | MIC (S. pyogen. C203) [µg/mL] | MIC (K. pneum. 39645) [µg/mL] | MIC (C. albicans 10231) [µg/mL] | MIC (C. albicans Wisc.) [µg/mL] | MIC (P. mirab. MGH-1) [µg/mL] | Dental Plaque Preventive Activity in 50% saliva Minimum Effective Conc. (%) [3] [%] | MIC (S. Aureus Smith) [µg/mL] | MIC (T. menta. 9129) [µg/mL] | MIC (E. coli AB1932-1) [µg/mL] | MIC (E. coli 100/B22) [µg/mL] | further results |
| --- | --- | --- | --- | --- | --- | --- | --- | --- | --- | --- | --- | --- | --- | --- | --- | --- | --- | --- | --- | --- | --- |
| CCCCCCCCNc1cc[n+](CCCCCCCCC[n+]2ccc(NCCCCCCCC)cc2)cc1 [Example 44A, 1,9-bis-[4-(octylamino)-1-pyridinium]nonane dibromide] | 3.9 | > 1000 | 0/3 | 0/3 | 0/3 | 0/3 | 0/3 | 0/3 | 0/3 | 0/3 | 0.5 | 1.95 | 1 | 1.95 | 15.6 | 0.005 | 1 | 1 | 1 | 1 | MIC (A. niger 16404): 3.9 µg/mL; MIC (E. coli Vogel): 1 µg/mL |
| CCCCCCCCNc1cc[n+](CCCCCC[n+]2ccc(NCCCCCCCC)cc2)cc1 [Example 14] | – | > 1000 | 0/3 | 0/3 | 0/3 | 0/3 | 0/3 | 0/3 | 1/3 | 0/3 | – | – | – | – | – | 0.1 | – | – | – | – | MIC Ps. aerug. MGH-2 (Ps. aerug. MGH-2): 31.3 µg/mL; MIC S. pyogen. C203 (S. pyogen. C203): 0.5 µg/mL; MIC K. pneum. 39645 (K. pneum. 39645): 1.95 µg/mL; MIC C. albicans 10231 (C. albicans 10231): 1.95 µg/mL; MIC C. albicans Wisc. (C. albicans Wisc.): 1.95 µg/mL; MIC P. mirab. MGH-1 (P. mirab. MGH-1): 15.6 µg/mL; MIC A. niger 16404 (A. niger 16404): 15.6 µg/mL; MIC S. Aureus Smith (S. Aureus Smith): 0.25 µg/mL; MIC T. menta. 9129 (T. menta. 9129): 1.0 µg/mL; MIC E. coli AB1932-1 (E. coli AB1932-1): 0.5 µg/mL; MIC E. coli 100/B22 (E. coli 100/B22; 18-20 hours at 37° C.): 0.5 µg/mL; MIC E. coli Vogel (E. coli Vogel): 1.0 µg/mL |
| CCCCCCCCNc1cc[n+](CCCCCCCCCC[n+]2ccc(NCCCCCCCC)cc2)cc1 [10A,B, 1,10-bis-[4-(octylamino)-1-pyridinium]decane dichloride] | 3.9 | – | – | – | – | – | – | – | – | – | 1 | 1.95 | 1.95 | 1.95 | 3.9 | – | 0.5 | 1.95 | 1 | 1 | LD50 at 168 h ([1]; aqueous solution): > 1000 mg/kg; Mortality 7 Days [2, 10]: 0/3; Mortality 24 Hrs [2, 10]: 0/3; Mortality 7 Days [2, 11]: 0/3; Mortality 24 Hrs [2, 11]: 0/3; Mortality 7 Days [2, 12]: 0/3; Mortality 24 Hrs [2, 12]: 0/3; Mortality 7 Days [2, 13]: 0/3; Mortality 24 Hrs [2, 13]: 0/3; MIC A. niger 16404 (A. niger 16404): 7.8 µg/mL; Dental Plaque Preventive Activity in 50% saliva Minimum Effective Conc. (%) ([3]; listed as 10 A, B): 0.005%; MIC (E. coli Vogel): 1.95 µg/mL |
| CCCCC(CC)CNc1cc[n+](CCCCCCCC[n+]2ccc(NCC(CC)CCCC)cc2)cc1 (centres unmarked) [Example 56, 1,8-bis-[4-(2-ethylhexylamino)-1-pyridinium]octane dibromide] | 125 | > 1000 | 0/3 | 0/3 | 0/3 | 0/3 | 0/3 | 0/3 | 1/3 | 1/3 | 0.16 | 7.8 | 3.9 | 3.9 | 125 | 0.1 | 0.31 | 1.95 | 0.98 | 1.95 | MIC (A. niger 16404): 15.6 µg/mL; Virucidal activity against Herpes simplex type 2 virus [4]: active; MIC (E. coli Vogel): 3.9 µg/mL |
